Measurements taken from patent US11236087B2, “Highly active pyrazolo-piperidine substituted indole-2-carboxamides active against the hepatitis B virus (HBV)” (AiCuris GmbH & Co. KG, priority 2017, dated 2022).

Tests used:
[1] = test system: HBV; assay: Determination of HBV DNA from the supernatants of HepAD38 cells (anti-HBV activity); type: cell-based, hepatitis B virus; details: Hepatitis B virus, 144 h; HBV DNA in HepAD38 supernatant, day 6, qPCR; read-out: Cell Activity (EC50)
Procedure, shortened: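 Supernatant viral DNA was measured by LightCycler qPCR, calibrated with pCH-9/3091 plasmid, 6 days after tetracycline-free HepAD38 cultures received half-log serial compound dilutions; untreated and tetracycline-treated cells served as controls; EC50 was fitted by non-linear regression.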

[2] = biological target: T1, HBV core protein (UniProt P03146); assay: Biochemical capsid assembly assay (fluorescence quenching); parameters: species or system hepatitis B virus; details: read-out: Assembly Activity (IC50); BODIPY-FL labelled core protein, 300 μM NaCl, read 6 min after start
T1 construct: fused on or other part: BODIPY-FL maleimide label on the C-terminal Cys150
Procedure, shortened: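 Assembly-induced fluorescence quenching (477/525 nm) was measured 6 min after NaCl addition ([…]), against 2.5 M and 0 M NaCl controls. The labelled C150 core dimer (truncated at 149) at 1.0-2.0 μM in HEPES pH 7.5 was tested with eight half-log compound dilutions, top 100, 31.6 or 10 μM. EC50 was obtained by non-linear fit from triplicates run three times.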

[3] = Cell viability assay (AlamarBlue) in HepAD38 cells; details: human

T1 sequence (P03146 whole entry, looked up, the tested form may be a part): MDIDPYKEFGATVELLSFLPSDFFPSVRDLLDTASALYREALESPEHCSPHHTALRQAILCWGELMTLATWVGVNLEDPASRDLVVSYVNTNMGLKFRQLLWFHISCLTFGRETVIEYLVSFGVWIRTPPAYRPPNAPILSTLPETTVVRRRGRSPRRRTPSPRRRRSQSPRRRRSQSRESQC

Row | SMILES | EC50 [1] [µM] | IC50 [2] [µM] | CC50 at 6 days [3] [µM]
1 | COCC1(N(C)C(=O)c2n[nH]c3c2CN(C(=O)c2cc4cccc(F)c4[nH]2)CC3)CC1 [Example 308, 5-(7-fluoro-1H-indole-2-carbonyl)-N-[1-(methoxymethyl)cyclopropyl]-N-methyl-1H,4H,5H,6H,7H-pyrazolo[4,3-c]pyridine-3-carboxamide] | < 1 | < 5 | > 10
2 | COCC1(N(C)C(=O)c2n[nH]c3c2CN(C(=O)c2cc4cc(F)cc(F)c4[nH]2)CC3)CC1 [Example 309, 5-(5,7-difluoro-1H-indole-2-carbonyl)-N-[1-(methoxymethyl)cyclopropyl]-N-methyl-1H,4H,5H,6H,7H-pyrazolo[4,3-c]pyridine-3-carboxamide] | < 1 | < 5 | > 10
3 | CN(C(=O)c1n[nH]c2c1CN(C(=O)c1cc3ccccc3[nH]1)CC2)C1(C(F)(F)F)CC1 [Example 310, 5-(1H-indole-2-carbonyl)-N-methyl-N-[1-(trifluoromethyl)cyclopropyl]-1H,4H,5H,6H,7H-pyrazolo[4,3-c]pyridine-3-carboxamide] | 1 to 25 | < 100 | > 10
4 | CN(C(=O)c1n[nH]c2c1CN(C(=O)c1cc3ccccc3[nH]1)CC2)C1(c2ccccn2)CC1 [Example 311, 5-(1H-indole-2-carbonyl)-N-methyl-N-[1-(pyridin-2-yl)cyclopropyl]-1H,4H,5H,6H,7H-pyrazolo[4,3-c]pyridine-3-carboxamide] | < 1 | < 5 | > 10
5 | C#CCN(C)C(=O)c1n[nH]c2c1CN(C(=O)c1cc3ccccc3[nH]1)CC2 [Example 312, 5-(1H-indole-2-carbonyl)-N-methyl-N-(prop-2-yn-1-yl)-1H,4H,5H,6H,7H-pyrazolo[4,3-c]pyridine-3-carboxamide] | < 1 | < 5 | > 10
6 | COCC1(N(CC(F)(F)F)C(=O)c2n[nH]c3c2CN(C(=O)c2cc4ccccc4[nH]2)CC3)CC1 [Example 313, 5-(1H-indole-2-carbonyl)-N-[1-(methoxymethyl)cyclopropyl]-N-(2,2,2-trifluoroethyl)-1H,4H,5H,6H,7H-pyrazolo[4,3-c]pyridine-3-carboxamide] | < 1 | < 5 | > 10
7 | C#CCOCC1(N(C)C(=O)c2n[nH]c3c2CN(C(=O)c2cc4ccccc4[nH]2)CC3)CC1 [Example 315, 5-(1H-indole-2-carbonyl)-N-methyl-N-{1-[(prop-2-yn-1-yloxy)methyl]cyclopropyl}-1H,4H,5H,6H,7H-pyrazolo[4,3-c]pyridine-3-carboxamide] | < 1 | < 5 | > 10
8 | CN(Cc1cn(C)nn1)C(=O)c1n[nH]c2c1CN(C(=O)c1cc3ccccc3[nH]1)CC2 [Example 316, 5-(1H-indole-2-carbonyl)-N-methyl-N-[(1-methyl-1H-1,2,3-triazol-4-yl)methyl]-1H,4H,5H,6H,7H-pyrazolo[4,3-c]pyridine-3-carboxamide] | 1 to 25 | < 5 | > 10
9 | C=Cc1scnc1-c1n[nH]c2c1CN(C(=O)c1cc3ccccc3[nH]1)CC2 [Example 317, 2-[3-(5-ethenyl-1,3-thiazol-4-yl)-1H,4H,5H,6H,7H-pyrazolo[4,3-c]pyridine-5-carbonyl]-1H-indole] | < 1 | < 5 | > 10
10 | CN(C(=O)c1n[nH]c2c1CN(C(=O)c1cc3ccccc3[nH]1)CC2)C1(COC(F)F)CC1 [Example 318, N-{1-[(difluoromethoxy)methyl]cyclopropyl}-5-(1H-indole-2-carbonyl)-N-methyl-1H,4H,5H,6H,7H-pyrazolo[4,3-c]pyridine-3-carboxamide] | < 1 | < 5 | > 10
11 | CN(C(=O)c1[nH]nc2c1CN(C(=O)c1cc3c(F)cccc3[nH]1)CC2)C1CC1 [Example 322, N-cyclopropyl-5-(4-fluoro-1H-indole-2-carbonyl)-N-methyl-2H,4H,5H,6H,7H-pyrazolo[4,3-c]pyridine-3-carboxamide] | < 1 | < 5 | > 10
12 | CN(C(=O)c1[nH]nc2c1CN(C(=O)c1cc3c(F)cc(F)cc3[nH]1)CC2)C1CC1 [Example 323, N-cyclopropyl-5-(4,6-difluoro-1H-indole-2-carbonyl)-N-methyl-2H,4H,5H,6H,7H-pyrazolo[4,3-c]pyridine-3-carboxamide] | < 1 | < 5 | > 10
13 | CN(C(=O)c1[nH]nc2c1CN(C(=O)c1cc3c(Cl)c(F)ccc3[nH]1)CC2)C1CC1 [Example 324, 5-(4-chloro-5-fluoro-1H-indole-2-carbonyl)-N-cyclopropyl-N-methyl-2H,4H,5H,6H,7H-pyrazolo[4,3-c]pyridine-3-carboxamide] | < 1 | < 5 | > 10
14 | CN(C(=O)c1[nH]nc2c1CN(C(=O)c1cc3ccc(Cl)cc3[nH]1)CC2)C1CC1 [Example 325, 5-(6-chloro-1H-indole-2-carbonyl)-N-cyclopropyl-N-methyl-2H,4H,5H,6H,7H-pyrazolo[4,3-c]pyridine-3-carboxamide] | < 1 | < 5 | > 10
15 | CN(C(=O)c1[nH]nc2c1CN(C(=O)c1cc3c(Cl)cccc3[nH]1)CC2)C1CC1 [Example 326, 5-(4-chloro-1H-indole-2-carbonyl)-N-cyclopropyl-N-methyl-2H,4H,5H,6H,7H-pyrazolo[4,3-c]pyridine-3-carboxamide] | < 1 | < 5 | > 10
16 | Cc1cc(F)cc2[nH]c(C(=O)N3CCc4n[nH]c(C(=O)N(C)C5CC5)c4C3)cc12 [Example 327, N-cyclopropyl-5-(6-fluoro-4-methyl-1H-indole-2-carbonyl)-N-methyl-2H,4H,5H,6H,7H-pyrazolo[4,3-c]pyridine-3-carboxamide] | < 1 | < 5 | > 10
17 | CCc1cccc2[nH]c(C(=O)N3CCc4n[nH]c(C(=O)N(C)C5CC5)c4C3)cc12 [Example 328, N-cyclopropyl-5-(4-ethyl-1H-indole-2-carbonyl)-N-methyl-2H,4H,5H,6H,7H-pyrazolo[4,3-c]pyridine-3-carboxamide] | < 1 | < 5 | > 10
18 | CN(C(=O)c1[nH]nc2c1CN(C(=O)c1cc3cc(F)c(Cl)cc3[nH]1)CC2)C1CC1 [Example 329, 5-(6-chloro-5-fluoro-1H-indole-2-carbonyl)-N-cyclopropyl-N-methyl-2H,4H,5H,6H,7H-pyrazolo[4,3-c]pyridine-3-carboxamide] | < 1 | < 5 | > 10
19 | CCc1cc(F)cc2[nH]c(C(=O)N3CCc4n[nH]c(C(=O)N(C)C5CC5)c4C3)cc12 [Example 330, N-cyclopropyl-5-(4-ethyl-6-fluoro-1H-indole-2-carbonyl)-N-methyl-2H,4H,5H,6H,7H-pyrazolo[4,3-c]pyridine-3-carboxamide] | < 1 | < 5 | > 10
20 | CCc1cccc2[nH]c(C(=O)N3CCc4[nH]nc(C56CC(C5)C6)c4C3)cc12 [Example 331, 2-(3-{bicyclo[1.1.1]pentan-1-yl}-1H,4H,5H,6H,7H-pyrazolo[4,3-c]pyridine-5-carbonyl)-4-ethyl-1H-indole] | < 1 | < 5 | > 10
21 | O=C(c1cc2c(F)c(F)ccc2[nH]1)N1CCc2[nH]nc(C34CC(C3)C4)c2C1 [Example 332, 2-(3-{bicyclo[1.1.1]pentan-1-yl}-1H,4H,5H,6H,7H-pyrazolo[4,3-c]pyridine-5-carbonyl)-4,5-difluoro-1H-indole] | < 1 | < 5 | > 10
22 | O=C(c1cc2c(F)cc(F)cc2[nH]1)N1CCc2[nH]nc(C34CC(C3)C4)c2C1 [Example 333, 2-(3-{bicyclo[1.1.1]pentan-1-yl}-1H,4H,5H,6H,7H-pyrazolo[4,3-c]pyridine-5-carbonyl)-4,6-difluoro-1H-indole] | < 1 | < 5 | > 10
23 | CCc1cc(F)cc2[nH]c(C(=O)N3CCc4[nH]nc(C56CC(C5)C6)c4C3)cc12 [Example 334, 2-(3-{bicyclo[1.1.1]pentan-1-yl}-1H,4H,5H,6H,7H-pyrazolo[4,3-c]pyridine-5-carbonyl)-4-ethyl-6-fluoro-1H-indole] | < 1 | < 5 | > 10
24 | Cc1cc(F)cc2[nH]c(C(=O)N3CCc4[nH]nc(C56CC(C5)C6)c4C3)cc12 [Example 336, 2-(3-{bicyclo[1.1.1]pentan-1-yl}-1H,4H,5H,6H,7H-pyrazolo[4,3-c]pyridine-5-carbonyl)-6-fluoro-4-methyl-1H-indole] | < 1 | < 5 | > 10
25 | CCc1cccc2[nH]c(C(=O)N3CCc4[nH]nc(C5CCCO5)c4C3)cc12 (stereo not drawn) [Example 337, 4-ethyl-2-[3-(oxolan-2-yl)-1H,4H,5H,6H,7H-pyrazolo[4,3-c]pyridine-5-carbonyl]-1H-indole] | < 1 | < 5 | > 10
26 | O=C(c1cc2c(F)c(F)ccc2[nH]1)N1CCc2[nH]nc(C3CCCO3)c2C1 (stereo not drawn) [Example 338, 4,5-difluoro-2-[3-(oxolan-2-yl)-1H,4H,5H,6H,7H-pyrazolo[4,3-c]pyridine-5-carbonyl]-1H-indole] | < 1 | < 5 | > 10
